Reference: US8916567B2, “Certain crystalline hydrates, pharmaceutical compositions thereof and methods for preparation and use thereof” (Universal Technology Alliance, Inc., priority 2009, dated 2014)

Assays:
E. feacalis = assay: Minimum inhibitory concentration (MIC) in vitro, agar dilution method; assay type: cell-based; details: hydrate
Method in brief: (§1)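 MIC50, MIC90, MIC range and individual MICs derive from CLSI/NCCLS agar dilution testing of 2007-2008 clinical isolates from Sichuan and Beijing. Samples were prepared in DMSO with further dilution in sterile water; vancomycin and linezolid served as reference drugs.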

E. feacium = assay: as above; assay type: cell-based; details: hydrate
Method in brief: as §1

S. epidermidis MRSE = assay: as above; assay type: cell-based; details: hydrate
Method in brief: as §1

S. epidermidis MSSE = assay: as above; assay type: cell-based; details: hydrate
Method in brief: as §1

[1] = system: Staphylococcus aureus MRSA; assay: as above; assay type: cell-based; details: hydrate
Method in brief: as §1

[2] = system: Staphylococcus aureus MSSA; assay: as above; assay type: cell-based; details: hydrate
Method in brief: as §1

Staphylococcus aureus = assay: Minimum inhibitory concentration (MIC) in vitro, agar dilution method, quality control strain; assay type: cell-based; details: strain S. AT C C25923 (Table 7 No. 1); hydrate
Method in brief: as §1

[3] = Solubility in different solvents according to Chinese Pharmacopeia (2005 edition); assay type: physicochemical; details: for Result: at the given solute:solvent ratio
Procedure: The solubility of the (S)—[N-3-(3′-fluoro-4′-(4″-phenylpiperazinyl))phenyl-2-oxo-5-oxazolelidinyl]methylacetamide hydrates was tested with different solvents, and the test results are shown in Tables 15-19. The solubility was measured according to Chinese Pharmacopeia (2005 edition).

[4] = E. feacalis (5 strains), clinically isolated
[5] = E. feacium (5 strains), clinically isolated
[6] = S. ep MRSE (10 strains), clinically isolated
[7] = S. ep MSSE (10 strains), clinically isolated
[8] = S. MRSA (10 strains), clinically isolated
[9] = S. MSSA (11 strains), clinically isolated

What does the source list for `CC(=O)NC[C@H]1CN(c2ccc(N3CCN(c4ccccc4)CC3)c(F)c2)C(=O)O1` [⅖ hydrate, (S)—[N-3-(3′-fluoro-4′-(4″-phenylpiperazinyl))phenyl-2-oxo-5-oxazolidinyl]methyl acetamide 2/5 hydrate]?
MIC50 (E. feacalis; [4]): 0.5 µg/mL; MIC90 (E. feacalis; [4]): 0.5 µg/mL; MICrange (E. feacalis; [4]): 0.125 to 0.5 µg/mL; MIC (E. feacalis; strain Efa 116 (Table 8 No. 16)): 0.5 µg/mL; MIC (E. feacalis; strain Efa 907 (Table 8 No. 19)): 0.5 µg/mL; MIC (E. feacalis; strain Efa 3006 (Table 8 No. 18)): 0.25 µg/mL; MIC (E. feacalis; strain Efa 33748 (Table 8 No. 17)): 0.5 µg/mL; MIC50 (E. feacium; [5]): 1 µg/mL; MIC90 (E. feacium; [5]): 1 µg/mL; MICrange (E. feacium; [5]): 0.5 to 1 µg/mL; MIC (E. feacium; strain Efm 98 (Table 8 No. 21)): 0.5 µg/mL; MIC (E. feacium; strain Efm 171 (Table 8 No. 25)): 0.5 µg/mL; MIC (E. feacium; strain Efm 197 (Table 8 No. 22)): 1 µg/mL; MIC (E. feacium; strain Efm N3 (Table 8 No. 23)): 1 µg/mL; MIC (E. feacium; strain Efm N4 (Table 8 No. 24)): 1 µg/mL; MIC50 (S. epidermidis MRSE; [6]): 0.5 µg/mL; MIC90 (S. epidermidis MRSE; [6]): 0.5 µg/mL; MICrange (S. epidermidis MRSE; [6]): 0.125 to 0.5 µg/mL; MIC (S. epidermidis MRSE; strain S. ep MRSE4 (Table 8 No. 9)): 0.5 µg/mL; MIC (S. epidermidis MRSE; strain S. ep MRSE20 (Table 8 No. 6)): 0.5 µg/mL; MIC (S. epidermidis MRSE; strain S. ep MRSE87 (Table 8 No. 13)): 0.5 µg/mL; MIC (S. epidermidis MRSE; strain S. ep MRSE90 (Table 8 No. 10)): 0.5 µg/mL; MIC (S. epidermidis MRSE; strain S. ep MRSE101 (Table 8 No. 7)): 0.125 µg/mL; MIC (S. epidermidis MRSE; strain S. ep MRSE105 (Table 8 No. 11)): 0.5 µg/mL; MIC (S. epidermidis MRSE; strain S. ep MRSE140 (Table 8 No. 14)): 0.5 µg/mL; MIC (S. epidermidis MRSE; strain S. ep MRSE142 (Table 8 No. 12)): 0.5 µg/mL; MIC (S. epidermidis MRSE; strain S. ep MRSE210 (Table 8 No. 15)): 0.5 µg/mL; MIC (S. epidermidis MRSE; strain S. ep MRSE211 (Table 8 No. 8)): 0.5 µg/mL; MIC50 (S. epidermidis MSSE; [7]): 0.5 µg/mL; MIC90 (S. epidermidis MSSE; [7]): 0.5 µg/mL; MICrange (S. epidermidis MSSE; [7]): 0.125 to 0.5 µg/mL; MIC (S. epidermidis MSSE; strain S. ep MSSE87 (Table 7 No. 23)): 0.125 µg/mL; MIC (S. epidermidis MSSE; strain S. ep MSSE88 (Table 8 No. 5)): 0.5 µg/mL; MIC (S. epidermidis MSSE; strain S. ep MSSE113 (Table 7 No. 24)): 0.5 µg/mL; MIC (S. epidermidis MSSE; strain S. ep MSSE116 (Table 7 No. 25)): 0.5 µg/mL; MIC (S. epidermidis MSSE; strain S. ep MSSE118 (Table 8 No. 2)): 0.5 µg/mL; MIC (S. epidermidis MSSE; strain S. ep MSSE119 (Table 7 No. 27)): 0.125 µg/mL; MIC (S. epidermidis MSSE; strain S. ep MSSE137 (Table 8 No. 4)): 0.5 µg/mL; MIC (S. epidermidis MSSE; strain S. ep MSSE140 (Table 8 No. 3)): 0.5 µg/mL; MIC (S. epidermidis MSSE; strain S. ep MSSE142 (Table 7 No. 26)): 0.25 µg/mL; MIC (S. epidermidis MSSE; strain S. ep MSSE153 (Table 8 No. 1)): 0.5 µg/mL; MIC50 [1, 8]: 1 µg/mL; MIC90 [1, 8]: 0.5 µg/mL; MICrange [1, 8]: 0.25 to 0.5 µg/mL; MIC ([1]; strain S. MRSA 29 (Table 7 No. 15)): 0.5 µg/mL; MIC ([1]; strain S. MRSA 101 (Table 7 No. 14)): 0.5 µg/mL; MIC ([1]; strain S. MRSA 201 (Table 7 No. 13)): 0.5 µg/mL; MIC ([1]; strain S. MRSA B27 (Table 7 No. 21)): 0.5 µg/mL; MIC ([1]; strain S. MRSA B105 (Table 7 No. 17)): 0.5 µg/mL; MIC ([1]; strain S. MRSA B143 (Table 7 No. 19)): 0.5 µg/mL; MIC ([1]; strain S. MRSA B151 (Table 7 No. 20)): 0.25 µg/mL; MIC ([1]; strain S. MRSA B164 (Table 7 No. 16)): 0.5 µg/mL; MIC ([1]; strain S. MRSA B199 (Table 7 No. 22)): 0.5 µg/mL; MIC ([1]; strain S. MRSA B617 (Table 7 No. 18)): 0.5 µg/mL; MIC50 [2, 9]: 0.5 µg/mL; MIC90 [2, 9]: 0.5 µg/mL; MICrange [2, 9]: 0.5 to 1 µg/mL; MIC ([2]; strain S. MSSA 123 (Table 7 No. 3)): 0.5 µg/mL; MIC ([2]; strain S. MSSA 187 (Table 7 No. 7)): 0.5 µg/mL; MIC ([2]; strain S. MSSA 195 (Table 7 No. 6)): 1 µg/mL; MIC ([2]; strain S. MSSA 195 (Table 7 No. 12)): 0.5 µg/mL; MIC ([2]; strain S. MSSA 201 (Table 7 No. 11)): 0.5 µg/mL; MIC ([2]; strain S. MSSA 232 (Table 7 No. 2)): 0.5 µg/mL; MIC ([2]; strain S. MSSA 275 (Table 7 No. 10)): 0.5 µg/mL; MIC ([2]; strain S. MSSA 466 (Table 7 No. 8)): 0.5 µg/mL; MIC ([2]; strain S. MSSA 519 (Table 7 No. 9)): 0.5 µg/mL; MIC ([2]; strain S. MSSA 520 (Table 7 No. 4)): 0.5 µg/mL; MIC ([2]; strain S. MSSA 580 (Table 7 No. 5)): 0.5 µg/mL; MIC (Staphylococcus aureus): 0.5 µg/mL; Solubility compared with the anhydride ([3]; different solvents): sometimes more soluble than the anhydride; Result ([3]; solvent 0.1N Hydrochloric acid): Dissolved; Result ([3]; solvent 0.1N Sodium hydroxide): Insoluble; Result ([3]; solvent Acetonitrile): Dissolved; Result ([3]; solvent Ethanol): Dissolved; Result ([3]; solvent Methanol): Dissolved; Result ([3]; solvent Water, hydrate): Dissolved
